From paper PMC4920673, “Nitroimidazole carboxamides as antiparasitic agents targeting Giardia lamblia, Entamoeba histolytica and Trichomonas vaginalis” (European Journal of Medicinal Chemistry, 2016)
In brackets after ≈: the same amount, converted by molar mass. Read-outs that look alike come from different tables or passages of the source.

Experiments:
[1] = tested on: G. lamblia WB (MtzS); assay: ATP-bioluminescence growth/survival EC50 assay, G. lamblia WB; conditions: for EC50: Giardia duodenalis; for S.I (CC50/EC50): average cytotoxicity against HEK293 and HepG2 / G. lamblia WB activity
Method: (§1) Compounds were screened for antiparasitic activity using an ATP-bioluminescence based assay for cell growth and survival, [24]. […] Viable cell numbers were determined in triplicate using the CellTiter-Glo Luminescent Cell Viability Assay.

[2] = tested on: C. difficile 630 (ATCC BAA-1382); assay: Broth microdilution MIC assay, C. difficile 630; format: cell-based, Clostridium difficile; conditions: Clostridioides difficile, ATCCBAA1382; strain 630, MtzS; median of n = 4; read-out: MIC C. difficile 630
Method: Clostridium difficile strains (630, ATCC BAA-1382 and NAP1/027, ATCC BAA-1803) were maintained as previously described. The minimum inhibition concentration (MIC) was determined according to the CLSI Methods with modifications in broth and inoculum for C. difficile, [25], [26]. Briefly, compounds and control antibiotics were serially diluted two-fold in 96-well plates (Non-binding surface, Corning). […] C. difficile bacteria from BHIS(TA) agar plates were cultured anaerobically in BHIS at 37 °C overnight. […] An antibiotic standard, a positive growth control (no compound) and a sterility control (no bacteria) were included on each 96 well plate. Plates were covered and incubated at 37 °C for 24 h. MICs for each strain were determined as the lowest concentration without visible growth. […] Median MICs are reported with a range given when the median MIC was between two tested concentrations.

[3] = Resazurin cytotoxicity assay, HEK293; format: cell-based, Human; conditions: human, 24 h, highest concentration 100 μM, n = 3, read-out: CC50 HEK 293
Method: (§2) Human HEK293 and HepG2 cells were seeded at 3000 and 5000 cells per well in 384-well plates, respectively. Cells were cultured in Dulbecco's modified Eagle's medium with 10% FBS for 24 h at 37 °C, 5% CO2. A dilution series of compounds was added, with the highest concentration of 100 μM. […] After 24 h incubation with the compounds, 5 μM resazurin was added into each well and incubated at 37 °C for 2 h. As a negative control, 1% Triton X-100 was added into the culture media to lyse all of the cells. The fluorescence intensity was read using Polarstar Omega with excitation/emission 560/590 nm. Data were analysed with GraphPad Prism 6 software (La Jolla, California USA) to calculate CC50 values.

[4] = Resazurin cytotoxicity assay, HepG2; format: cell-based, Human; conditions: human, 24 h, highest concentration 100 μM, n = 3, read-out: CC50 Hep G2
Method: as §2

[5] = tested on: E. histolytica HM1:IMSS; assay: ATP-bioluminescence growth/survival EC50 assay, E. histolytica; format: cell-based, Entamoeba histolytica; conditions: Entamoeba histolytica
Method: as §1

[6] = tested on: T. vaginalis F1623; assay: ATP-bioluminescence growth/survival EC50 assay, T. vaginalis; format: cell-based, Trichomonas vaginalis; conditions: Trichomonas vaginalis
Method: as §1

[7] = tested on: G. lamblia 713M3 (MtzR); assay: ATP-bioluminescence growth/survival EC50 assay, G. lamblia 713M3; format: cell-based, Giardia lamblia
Method: as §1

[8] = tested on: C. difficile NAP1/027 (ATCC BAA-1803); assay: Broth microdilution MIC assay, C. difficile NAP1/027; format: cell-based, Clostridium difficile; conditions: Clostridioides difficile, ATCCBAA1803; strain NAP1/027
Method: Clostridium difficile strains (630, ATCC BAA-1382 and NAP1/027, ATCC BAA-1803) were maintained as previously described. The minimum inhibition concentration (MIC) was determined according to the CLSI Methods with modifications in broth and inoculum for C. difficile, [25], [26]. Briefly, compounds and control antibiotics were serially diluted two-fold in 96-well plates (Non-binding surface, Corning). The plates were placed in a Coy anaerobic chamber (5% H2, 10% CO2, 85% N2) overnight to reduce the medium. C. difficile bacteria from BHIS(TA) agar plates were cultured anaerobically in BHIS at 37 °C overnight. […]. Compound concentration ranged from 64 to 0.03 μg/mL. An antibiotic standard, a positive growth control (no compound) and a sterility control (no bacteria) were included on each 96 well plate. Plates were covered and incubated at 37 °C for 24 h. MICs for each strain were determined as the lowest concentration without visible growth. Variance between replicates was typically within one 2-fold dilution. Median MICs are reported with a range given when the median MIC was between two tested concentrations.

[9] = read-out: EC50 G. lamblia WB, MtzS strain WB, minimum n = 3
[10] = read-out: pEC50 ± SE G. lamblia WB, MtzS strain WB (converted)
[11] = read-out: EC50 E. histolytica HM1:IMSS
[12] = read-out: pEC50 ± SE E. histolytica HM1:IMSS (converted)
[13] = read-out: EC50 T. vaginalis F1623, MtzS, minimum n = 3
[14] = read-out: pEC50 ± SE T. vaginalis F1623, MtzS (converted)
[15] = Giardia duodenalis, read-out: EC50 G. lamblia 713M3, MtzR strain 713M3, minimum n = 3
[16] = Giardia duodenalis, read-out: pEC50 ± SE G. lamblia 713M3, MtzR strain 713M3 (converted)

SMILES	EC50 [1, 9] [µM]	EC50 [1, 10] [µM]	MIC [2] [µg/mL]	CC50 at 24 h [3] [µM]	CC50 at 24 h [4] [µM]	EC50 [5, 11] [µM]	EC50 [5, 12] [µM]	EC50 [6, 13] [µM]	EC50 [6, 14] [µM]	S.I (CC50/EC50) [1]	CC50 at 24 h ([3]; HEK293 cells) [µM]	CC50 at 24 h ([4]; HepG2 cells) [µM]	EC50 [7, 15] [µM]	EC50 [7, 16] [µM]	EC50 ([7]; read-out: EC50 G. lamblia 713M3, MtzR strain 713M3, minimum n = 3) [µM]	MIC [8] [µg/mL]
NC(=O)c1nc([N+](=O)[O-])cn1Cc1ccc(F)cc1 [Compound 13a, 1-(4-fluorobenzyl)-4-nitro-1H-imidazole-2-carboxamide]	> 50	> 50.1	> 64	> 100	> 100	> 50	> 50.1	–	–	–	–	–	–	–	–	–
CC(NC(=O)c1ncc([N+](=O)[O-])[nH]1)c1ccc(F)cc1 (centres unmarked) [Compound 12d, N-(1-(4-fluorophenyl)ethyl)-5-nitro-1H-imidazole-2-carboxamide]	0.4	0.398	8 (≈ 28.8 µM)	–	–	1.7	1.7	0.6	0.589	>250	> 100	> 100	≤ 2.5	1.26	1.3	8 (≈ 28.8 µM)
O=C(NCc1cccc(OC(F)(F)F)c1)c1ncc([N+](=O)[O-])[nH]1 [Compound 12c, 5-nitro-N-(3-(trifluoromethoxy)benzyl)-1H-imidazole-2-carboxamide]	0.2	0.2	16 (≈ 48.5 µM)	> 100	> 100	3.6	3.63	1.9	1.91	>500	–	–	15	14.8	–	16 (≈ 48.5 µM)
Cc1ccc(CCn2cc([N+](=O)[O-])nc2C(N)=O)cc1 [Compound 13d, 1-(4-methylphenethyl)-4-nitro-1H-imidazole-2-carboxamide]	> 50	> 50.1	> 64	–	–	> 50	> 50.1	–	–	–	> 100	> 100	–	–	–	> 64
NNC(=O)c1nc([N+](=O)[O-])cn1Cc1ccc(OC(F)(F)F)cc1 [Compound 14e, 4-nitro-1-(4-(trifluoromethoxy)benzyl)-1H-imidazole-2-carbohydrazide]	7.5	7.59	> 64	> 100	> 100	45	44.7	–	–	>13	–	–	–	–	–	> 64
CNC(=O)c1nc([N+](=O)[O-])cn1Cc1ccc(OC(F)(F)F)cc1 [Compound 14a, N-methyl-4-nitro-1-(4-(trifluoromethoxy)benzyl)-1H-imidazole-2-carboxamide]	3.4	3.39	–	> 100	> 100	30	30.2	–	–	>29	–	–	–	–	–	> 64
CN(C)C(=O)c1nc([N+](=O)[O-])cn1Cc1ccc(OC(F)(F)F)cc1 [Compound 14b, N,N-dimethyl-4-nitro-1-(4-(trifluoromethoxy)benzyl)-1H-imidazole-2-carboxamide]	2.7	2.69	64 (≈ 179 µM)	> 100	> 100	19	19.1	–	–	>37	–	–	–	–	–	64 (≈ 179 µM)
NC(=O)c1nc([N+](=O)[O-])cn1Cc1ccc(OC(F)(F)F)cc1 [Compound 13b, 4-nitro-1-(4-(trifluoromethoxy)benzyl)-1H-imidazole-2-carboxamide]	4.1	4.07	> 64	> 100	> 100	> 25	> 25.1	–	–	>22	–	–	–	–	–	–
NC(=O)c1nc([N+](=O)[O-])cn1Cc1ccccn1 [Compound 13e, 4-nitro-1-(pyridin-2-ylmethyl)-1H-imidazole-2-carboxamide]	27	26.9	> 64	–	–	> 50	> 50.1	–	–	>3.7	> 100	> 100	–	–	–	> 64
Nc1c[nH]c(C(=O)NCc2ccc(F)cc2)n1 [Compound 20, 4-amino-N-(4-fluorobenzyl)-1H-imidazole-2-carboxamide]	> 50	–	> 64	–	–	> 50	–	> 20	–	–	–	–	–	–	–	–
NC(=O)c1nc([N+](=O)[O-])cn1Cc1cccc(OC(F)(F)F)c1 [Compound 13c, 4-nitro-1-(3-(trifluoromethoxy)benzyl)-1H-imidazole-2-carboxamide]	8.4	8.32	> 64	> 100	> 100	> 50	> 50.1	–	–	>12	–	–	–	–	–	–
O=C(NCc1ccc(F)cc1)c1ncc[nH]1 [Compound 17, N-(4-fluorobenzyl)-1H-imidazole-2-carboxamide]	> 50	–	> 64	–	–	> 50	–	> 20	–	–	–	–	–	–	–	–
NC(=O)c1nccn1Cc1ccc(OC(F)(F)F)cc1 [Compound 18, 1-(4-(trifluoromethoxy)benzyl)-1H-imidazole-2-carboxamide]	> 50	–	> 64	–	–	> 50	–	–	–	–	–	–	–	–	–	–
